Assay results: US20200062719A1, “Application of Imidazopyridine Derivatives in Regenerative Medicine” (University of Heidelberg, priority 2018, published 2020)

What was measured:
[1] = system: hiPSCs; assay: iPSC single cell expansion, viability by MTT assay; assay type: cell-based, human; details: versus absence of O4I3
Experimental: Since O4I3 induced sustainable expression of Oct4 and Nanog, the inventors questioned if it supports iPSC self-renewal in single cell expansion. Therefore, the viability of iPSCs, after replating Accutase®-dissociated single iPSCs, was tested in the presence or absence of O4I3. Rocki (Y-27632) was used for the first 24 h to increase iPSCs survival. A nearly 300% higher viability in cells treated with O4I3 (1 nM) was observed. Using 50 nM of O4I3 even 400% increase was observed (FIG. 2A). FACS analysis confirmed homologous expression of iPSCs markers, Tra-1-81 and Oct4, for at least 30 passages (FIG. 2B).
iPSC single cell expansion was performed according to a well-established protocol known in the art (Watanabe et al, Nat Biotechnol, 2007, 25(6), 681-6). Briefly, iPSCs were dissociated with Accutase® as single cell suspension and re-seeded in a Geltrex-coated 96-well plate in the presence of Rock inhibitor for the first 24 h in combination with/without O4I3. Cell viability was performed in MTT assay as disclosed elsewhere (Cheng et al, Mol Oncol. 2016 June; 10(6):806-24).

[2] = biological target: methylated H3K4; assay: In vitro H3K4 methylation assay (Epiquik histone demethylase H3K4 specific kit); assay type: biochemical; details: in vitro methylation assay; read-out: IC50, protection of methylated H3K4
Experimental: (§1) Epiquik histone demethylase (H3K4 specific) activity/inhibition assay kit (Epigentek, Biocat, Germany) was used to measure the protective effect of O4I3 and zolpidem on the methylation of H3K4. Their inhibitory effects on LSD1, KDM5s, and KDM4 were determined using Epigenase jarid demethylase activity/inhibition assay kit, Epigenase JMJD2 demethylase activity/inhibition assay kit and EpiQuik histone demethylase LSD1 activity/inhibition assay kit (Epigentek, Biocat, Germany). The total nuclear extraction was used according to manufacturer's instructions. For measuring KDM5A, KDM5B, KDM5C, and KDM5D activity, magnetic beads were used to immunoprecipitate the respective enzymes from 10^8 cells according to the manufacturer's instructions (Cell Signaling Technologies).

[3] = biological target: T1, LSD1 (Homo sapiens, UniProt O60341); assay: LSD1 demethylase inhibition, nuclear extraction; assay type: biochemical; details: even at a concentration of 100 mM
T1 construct: using the whole-cell nuclear extraction; endogenous in cells
Excerpt: HMT and HDM are two major classes of enzymes, contributing to the regulation of histone methylation. Lysine-specific demethylase 1 (LSD1) and histone lysine demethylase 5 (KDM5, also known as JARID1) majorly catalyze demethylation of H3K4. A few KDM5 chemical inhibitors have been reported to inhibit demethylation of H3K4, leading to an increase of global methylated H3K4 in various cell types. The inventors tested the inhibitory effect of O4I3 on LSD1 and KDM5. KDM4 (also known as JMJD2), the HDM of H3K9 and H3K36, was also included.
as §1

[4] = biological target: T2, KDM5C (Homo sapiens, UniProt P41229); assay: KDM5C inhibition, enzyme immunoprecipitated from cells; assay type: biochemical
T2 construct: magnetic beads were used to immunoprecipitate the respective enzymes from 10^8 cells; endogenous in cells
Excerpt: (§2) In mammalian cells, the KDM5 family consists of four members, namely, KDM5A (known as JARID1A), KDM5B (known as JARID1B or PLU1), KDM5C (JARID1C), and KDM5D (JARID1D or SMCY). […] Next, the inventors tested four KDM chemical inhibitors. […] The inventors detected the induction of OCT4, SOX2, and E-Cadherin expression in JIB-04-treated HFs (FIG. 18D).
as §1

[5] = biological target: T3, KDM5B (Homo sapiens, UniProt Q9UGL1); assay: KDM5B inhibition, enzyme immunoprecipitated from cells; assay type: biochemical
T3 construct: magnetic beads were used to immunoprecipitate the respective enzymes from 10^8 cells; endogenous in cells
Excerpt: as §2, §1

[6] = system: hiPSCs; assay: Differentiation markers in hiPSCs at high concentration; assay type: cell-based, human; details: 10 μM
[7] = system: H3K4Me3; assay: Global H3K4Me3 level in fibroblasts (immunocytochemistry, immunoblotting); assay type: cell-based, human
Excerpt: The inventors investigated the transfection efficiency in HF1 and HF4 using the same episomal vector carrying cytomegalovirus (CMV)-driven GFP. The inventors could not observe a significant difference between two cell lines, as determined by FACS analysis. […] To study the epigenetic effects of O4I3 and its relevance to reprogramming, the inventors focused on two histone modifications at the promoter of OCT4, namely, H3K4Me3, known to be related to gene activation, and H3K27Me3, which indicates gene repression. […] The level of H3K27Me3 at the OCT4 promoter was minimally affected in our experiments (FIG. 17C). […] Immunoblotting confirmed a dose- and time-dependent increase of global H3K4Me3 expression in fibroblast, whereas H3K27Me3 remained mostly unaffected (FIG. 17E). In an in vitro methylation assay, O4I3 protected methylated H3K4 with an […] value of 20 nM (FIG. 17F). Trimethylation of H3K9 has been reported to block reprogramming by recruiting heterochromatin protein 1 to form heterochromatin at the core of pluripotency loci, which interferes with the hypermethylation of H3K4. […]
Fibroblasts were treated with O4I3 0.5 μM for 2 days in the presence/absence of reprogramming transcription factors. […] The signal intensity was analyzed using ImageJ software as single cell level randomly selected from at least three independent experiments.

[8] = system: iPSCs; assay: qRT-PCR gene expression in iPSCs; assay type: cell-based, human; details: 50 nM, 24 h
Experimental: A) O4I3 promoted the viability of hiPSCs in single cell expansion. B) Homogeneous expression of […] and Oct4 up to passage (p) 30 in hiPSCs treated with 50 nM O4I3 analyzed by FACS C) Relative fold changes to non-treatment in hiPSCs treated with O4I3 (50 nM) for 24 h analyzed by qRT-PCR. D) Gene expression profiling analysis of functional annotation enrichment for categories related to pluripotency, development and homeostasis in O4I3-treated iPSCs for 24 h. Data are represented as mean±SD from at least 3 independent experiments ***: p<0.001; **: p<0.01; *: p<0.05.
Quantitative reverse-transcription real-time-PCR was performed using a Light Cycler 96 (Roche, Germany) following the manufacturer's protocol. Briefly, total RNA was isolated from cells using TRIzol (Qiagen, Germany) or NucleoSpin®RNA Plus (Macherey-Nagel, Germany). The same amount of RNA was used to reverse-transcriptional synthesize cDNA by using random primers ProtoScript® First Strand cDNA Synthesis Kit (NEB, Germany). qPCR was performed using the SYBR Green PCR master mix (qPCRBIO SyGreen Mix Lo-Rox, Nippon Genetics, Germany) and the primer pairs indicated below (MWG, Eurofins, Germany). Actin was used as an endogenous control. Data were normalized to the value of untreated cells showing the mean±SD of quadruplicates and are representative of at least three independent experiments.

T2 sequence (P41229 whole entry): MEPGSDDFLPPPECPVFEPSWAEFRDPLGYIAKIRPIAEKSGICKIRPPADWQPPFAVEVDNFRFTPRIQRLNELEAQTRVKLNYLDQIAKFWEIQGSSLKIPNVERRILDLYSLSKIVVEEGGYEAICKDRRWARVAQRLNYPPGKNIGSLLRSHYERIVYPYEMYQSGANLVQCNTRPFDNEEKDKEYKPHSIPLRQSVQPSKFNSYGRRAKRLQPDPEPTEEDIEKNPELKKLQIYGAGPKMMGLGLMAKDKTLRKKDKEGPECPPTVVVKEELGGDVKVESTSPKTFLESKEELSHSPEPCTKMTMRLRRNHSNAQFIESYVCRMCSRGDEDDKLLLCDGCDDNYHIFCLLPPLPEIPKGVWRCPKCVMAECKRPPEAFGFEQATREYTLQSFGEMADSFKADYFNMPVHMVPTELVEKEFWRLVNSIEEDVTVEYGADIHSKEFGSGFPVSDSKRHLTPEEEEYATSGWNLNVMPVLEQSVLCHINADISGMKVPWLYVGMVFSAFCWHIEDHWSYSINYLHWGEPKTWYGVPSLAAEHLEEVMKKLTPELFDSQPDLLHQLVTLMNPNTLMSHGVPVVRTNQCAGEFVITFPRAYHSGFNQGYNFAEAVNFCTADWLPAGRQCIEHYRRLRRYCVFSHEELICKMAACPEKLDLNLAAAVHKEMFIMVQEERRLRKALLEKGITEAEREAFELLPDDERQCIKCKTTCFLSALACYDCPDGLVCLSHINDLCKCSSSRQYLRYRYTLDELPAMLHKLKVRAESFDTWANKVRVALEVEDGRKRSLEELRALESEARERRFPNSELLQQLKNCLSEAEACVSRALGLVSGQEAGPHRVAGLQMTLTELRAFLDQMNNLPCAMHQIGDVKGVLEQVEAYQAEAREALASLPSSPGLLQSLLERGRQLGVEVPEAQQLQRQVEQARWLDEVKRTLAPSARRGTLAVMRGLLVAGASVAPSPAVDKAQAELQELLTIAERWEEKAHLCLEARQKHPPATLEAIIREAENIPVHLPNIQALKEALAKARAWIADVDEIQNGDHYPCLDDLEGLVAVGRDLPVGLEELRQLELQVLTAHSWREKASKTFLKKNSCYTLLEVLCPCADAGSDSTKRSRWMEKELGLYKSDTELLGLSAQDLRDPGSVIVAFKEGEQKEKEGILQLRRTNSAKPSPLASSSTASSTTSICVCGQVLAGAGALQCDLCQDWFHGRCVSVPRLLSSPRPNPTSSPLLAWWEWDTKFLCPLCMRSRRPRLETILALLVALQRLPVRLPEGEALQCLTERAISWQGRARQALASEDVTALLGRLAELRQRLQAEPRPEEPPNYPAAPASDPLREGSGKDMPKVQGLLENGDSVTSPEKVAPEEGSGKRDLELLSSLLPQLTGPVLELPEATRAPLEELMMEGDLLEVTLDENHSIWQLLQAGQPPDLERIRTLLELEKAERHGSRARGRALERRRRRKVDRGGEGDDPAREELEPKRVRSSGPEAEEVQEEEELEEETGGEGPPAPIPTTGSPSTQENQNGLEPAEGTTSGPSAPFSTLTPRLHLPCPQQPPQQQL
T3 sequence (Q9UGL1 whole entry): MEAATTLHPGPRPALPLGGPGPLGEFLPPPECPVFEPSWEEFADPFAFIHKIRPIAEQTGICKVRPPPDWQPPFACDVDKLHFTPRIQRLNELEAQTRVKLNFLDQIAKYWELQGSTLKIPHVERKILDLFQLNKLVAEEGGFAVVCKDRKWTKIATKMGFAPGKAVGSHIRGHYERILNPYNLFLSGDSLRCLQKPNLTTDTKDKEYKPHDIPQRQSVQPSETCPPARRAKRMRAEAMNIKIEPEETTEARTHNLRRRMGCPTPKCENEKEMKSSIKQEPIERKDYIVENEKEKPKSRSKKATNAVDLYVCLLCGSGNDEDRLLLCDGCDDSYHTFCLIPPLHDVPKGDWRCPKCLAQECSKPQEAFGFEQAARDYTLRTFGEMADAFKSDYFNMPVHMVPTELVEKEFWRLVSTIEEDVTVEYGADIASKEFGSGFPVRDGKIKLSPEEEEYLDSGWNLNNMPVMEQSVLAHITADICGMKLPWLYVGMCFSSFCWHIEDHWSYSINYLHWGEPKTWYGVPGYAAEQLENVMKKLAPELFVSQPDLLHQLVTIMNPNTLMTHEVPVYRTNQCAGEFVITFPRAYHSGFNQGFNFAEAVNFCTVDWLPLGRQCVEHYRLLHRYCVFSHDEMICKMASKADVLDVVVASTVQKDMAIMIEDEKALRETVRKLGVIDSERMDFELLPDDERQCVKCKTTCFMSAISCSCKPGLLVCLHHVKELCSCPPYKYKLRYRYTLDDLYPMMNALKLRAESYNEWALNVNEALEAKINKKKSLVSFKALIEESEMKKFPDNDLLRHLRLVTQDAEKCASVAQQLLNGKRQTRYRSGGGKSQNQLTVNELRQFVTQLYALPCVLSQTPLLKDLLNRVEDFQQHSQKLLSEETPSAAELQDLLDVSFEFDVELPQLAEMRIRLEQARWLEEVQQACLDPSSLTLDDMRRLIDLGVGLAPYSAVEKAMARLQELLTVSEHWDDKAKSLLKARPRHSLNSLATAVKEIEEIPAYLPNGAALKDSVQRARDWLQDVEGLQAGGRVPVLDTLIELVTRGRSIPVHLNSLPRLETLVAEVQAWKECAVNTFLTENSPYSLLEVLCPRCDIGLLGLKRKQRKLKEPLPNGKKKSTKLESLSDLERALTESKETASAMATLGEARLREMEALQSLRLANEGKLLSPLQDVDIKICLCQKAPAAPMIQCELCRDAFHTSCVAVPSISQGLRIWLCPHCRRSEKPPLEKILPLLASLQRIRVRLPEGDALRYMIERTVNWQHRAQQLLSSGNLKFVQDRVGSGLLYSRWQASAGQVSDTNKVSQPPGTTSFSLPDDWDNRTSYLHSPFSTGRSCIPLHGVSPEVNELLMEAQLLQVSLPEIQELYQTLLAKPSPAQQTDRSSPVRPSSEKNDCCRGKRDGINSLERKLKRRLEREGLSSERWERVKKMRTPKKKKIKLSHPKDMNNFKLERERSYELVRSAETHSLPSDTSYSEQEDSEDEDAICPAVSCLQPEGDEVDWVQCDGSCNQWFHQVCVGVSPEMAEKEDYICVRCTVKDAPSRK

Cc1ccc(-c2cn3cc(C)ccc3n2)cc1 [O4I3, 6-methyl-2-(p-tolyl)imidazo[1,2-a]pyridine]
higher viability of iPSCs in single cell expansion ([1]; 1 nM): ~300% | higher viability of iPSCs in single cell expansion ([1]; 50 nM): 400% | IC50 [2]: 20 nM | inhibitory effect on LSD1 [3]: hardly detected the inhibitory effect | IC50 less potent than for KDM5A, KDM5C [4]: 40 fold | IC50 less potent than for KDM5A, KDM5B [5]: 1,000 fold | differentiation markers T and Gata4 [6]: induction of those markers | global level of H3K4Me3 [7]: increase of H3K4Me3 | expression of pluripotency-associated genes [8]: stabilized or slightly increased
